Measurements published in PubChem BioAssay (NCI).
Values joined by “and” are separate entries in the source; they are usually repeats but may differ in a detail not shown here. Identical values can stand only once.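 In this assay, cells in 96-well plates receive the compound at five concentrations for 48 hours. Endpoints are linearly interpolated between the surrounding concentrations. GI50: concentration for 50% inhibition of growth. TGI: concentration producing complete growth inhibition.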

Experiments:
Assay in all cases: DTP human tumour cell line panel, 48 h
MALME-3M melanoma = test system: MALME-3M melanoma
NCI-H226 lung = test system: NCI-H226 lung
NCI-H23 lung = test system: NCI-H23 lung
RXF 393 renal = test system: RXF 393 renal
UACC-257 melanoma = test system: UACC-257 melanoma
UO-31 renal = test system: UO-31 renal
OVCAR-4 ovarian = test system: OVCAR-4 ovarian
SK-OV-3 ovarian = test system: SK-OV-3 ovarian
LOX IMVI melanoma = test system: LOX IMVI melanoma
SF-295 CNS = test system: SF-295 CNS
HCT-116 colon = test system: HCT-116 colon
SK-MEL-28 melanoma = test system: SK-MEL-28 melanoma
HCC-2998 colon = test system: HCC-2998 colon
SNB-75 CNS = test system: SNB-75 CNS
NCI-H460 lung = test system: NCI-H460 lung
PC-3 prostate = test system: PC-3 prostate
HT29 colon = test system: HT29 colon
SK-MEL-2 melanoma = test system: SK-MEL-2 melanoma
MDA-MB-231 breast = test system: MDA-MB-231 breast
T-47D breast = test system: T-47D breast
SK-MEL-5 melanoma = test system: SK-MEL-5 melanoma
M14 melanoma = test system: M14 melanoma
OVCAR-3 ovarian = test system: OVCAR-3 ovarian
MOLT-4 leukemia = test system: MOLT-4 leukemia
ACHN renal = test system: ACHN renal
HCT-15 colon = test system: HCT-15 colon
A498 renal = test system: A498 renal
U251 CNS = test system: U251 CNS
NCI-H522 lung = test system: NCI-H522 lung
MCF7 breast = test system: MCF7 breast
EKVX NSCLC = test system: EKVX NSCLC
OVCAR-8 ovarian = test system: OVCAR-8 ovarian
CCRF-CEM leukemia = test system: CCRF-CEM leukemia
MDA-MB-435 = test system: MDA-MB-435
HOP-92 NSCLC = test system: HOP-92 NSCLC
OVCAR-5 ovarian = test system: OVCAR-5 ovarian
A549 NSCLC = test system: A549 NSCLC
CAKI-1 renal = test system: CAKI-1 renal
TK-10 renal = test system: TK-10 renal
DU-145 prostate = test system: DU-145 prostate
K-562 leukemia = test system: K-562 leukemia
HOP-62 NSCLC = test system: HOP-62 NSCLC
SF-268 CNS = test system: SF-268 CNS
KM12 colon = test system: KM12 colon
UACC-62 melanoma = test system: UACC-62 melanoma
COLO 205 colon = test system: COLO 205 colon
SR leukemia = test system: SR leukemia
IGROV1 ovarian = test system: IGROV1 ovarian
SW-620 colon = test system: SW-620 colon
HL-60(TB) leukemia = test system: HL-60(TB) leukemia
786-0 renal = test system: 786-0 renal
BT-549 breast = test system: BT-549 breast
HS 578T breast = test system: HS 578T breast
SF-539 CNS = test system: SF-539 CNS
SN12C renal = test system: SN12C renal
SNB-19 CNS = test system: SNB-19 CNS
NCI/ADR-RES ovarian = test system: NCI/ADR-RES ovarian
RPMI-8226 leukemia = test system: RPMI-8226 leukemia

CN(C)CCOc1ccc(-c2nc(-c3ccc4c(c3)CC/C4=N\O)c(-c3ccncc3)[nH]2)cc1
GI50 (MALME-3M melanoma): 0.00596 µM and 0.0186 µM
GI50 (NCI-H226 lung): 4.72 µM and 8.03 µM
TGI (NCI-H226 lung): 9.77 µM and 17.1 µM
GI50 (NCI-H23 lung): 3.23 µM and 3.98 µM
TGI (NCI-H23 lung): 7.85 µM and 25.7 µM
GI50 (RXF 393 renal): 4.37 µM and 4.3 µM
TGI (RXF 393 renal): 9.58 µM and 8.17 µM
GI50 (UACC-257 melanoma): 0.0456 µM and 0.0489 µM
TGI (UACC-257 melanoma): 1.07 µM and 2.74 µM
GI50 (UO-31 renal): 5.61 µM and 18.8 µM
TGI (UO-31 renal): 10 µM and 45.6 µM
GI50 (OVCAR-4 ovarian): 4.72 µM and 6.69 µM
TGI (OVCAR-4 ovarian): 9.74 µM and 37.8 µM
GI50 (SK-OV-3 ovarian): 3.67 µM and 9.66 µM
TGI (SK-OV-3 ovarian): 7.52 µM and 22.1 µM
GI50 (LOX IMVI melanoma): 0.934 µM and 1.51 µM
TGI (LOX IMVI melanoma): 6.46 µM
GI50 (SF-295 CNS): 4.6 µM and 8.82 µM
TGI (SF-295 CNS): 9.42 µM and 21.4 µM
GI50 (HCT-116 colon): 3.29 µM and 1.84 µM
TGI (HCT-116 colon): 7.8 µM and 6.72 µM
GI50 (SK-MEL-28 melanoma): 0.0188 µM and 0.029 µM
TGI (SK-MEL-28 melanoma): 3.26 µM and 1.85 µM
GI50 (HCC-2998 colon): 4.74 µM and 8.01 µM
TGI (HCC-2998 colon): 8.89 µM and > 27.8 µM
GI50 (SNB-75 CNS): 0.403 µM and 1.11 µM
TGI (SNB-75 CNS): 5.48 µM and 11 µM
GI50 (NCI-H460 lung): 4.14 µM and 4.55 µM
TGI (NCI-H460 lung): 8.24 µM and 17.2 µM
GI50 (PC-3 prostate): 4.09 µM and 5.66 µM
TGI (PC-3 prostate): 8.12 µM and 13.7 µM
GI50 (HT29 colon): 0.127 µM and 0.29 µM
TGI (HT29 colon): 4.53 µM and 3.49 µM
GI50 (SK-MEL-2 melanoma): 0.108 µM and 0.367 µM
GI50 (MDA-MB-231 breast): 3.27 µM and 1.63 µM
TGI (MDA-MB-231 breast): 7.26 µM and 4.88 µM
GI50 (T-47D breast): 4.8 µM and 7.63 µM
TGI (T-47D breast): 9.55 µM and 30.6 µM
GI50 (SK-MEL-5 melanoma): 3.31 µM and 5.46 µM
TGI (SK-MEL-5 melanoma): 6.81 µM and 19.9 µM
GI50 (M14 melanoma): 0.0258 µM and 0.054 µM
TGI (M14 melanoma): 2.14 µM and 3.69 µM
GI50 (OVCAR-3 ovarian): 4.42 µM and 4.34 µM
TGI (OVCAR-3 ovarian): 8.49 µM and 8.94 µM
GI50 (MOLT-4 leukemia): 5.74 µM and 3.53 µM
TGI (MOLT-4 leukemia): 12.2 µM and 25.7 µM
GI50 (ACHN renal): 4.79 µM and 5.03 µM
TGI (ACHN renal): 9.01 µM and 22 µM
GI50 (HCT-15 colon): 9.22 µM and 15.5 µM
TGI (HCT-15 colon): 25 µM and 57.4 µM
GI50 (A498 renal): 4.68 µM and 8.84 µM
TGI (A498 renal): 9.57 µM and 27.2 µM
GI50 (U251 CNS): 4.83 µM and 2.35 µM
TGI (U251 CNS): 9.15 µM and 4.69 µM
GI50 (NCI-H522 lung): 3.9 µM and 5.5 µM
TGI (NCI-H522 lung): 9.59 µM and 21 µM
GI50 (MCF7 breast): 4.52 µM and 3.55 µM
TGI (MCF7 breast): 9.03 µM and 16.1 µM
GI50 (EKVX NSCLC): 4.7 µM and 9 µM
TGI (EKVX NSCLC): 11 µM and 38.4 µM
GI50 (OVCAR-8 ovarian): 4.84 µM and 3.2 µM
TGI (OVCAR-8 ovarian): 10.1 µM and 8.96 µM
GI50 (CCRF-CEM leukemia): 4.32 µM and 2.43 µM
TGI (CCRF-CEM leukemia): 11.3 µM and 10.2 µM
TGI (MDA-MB-435): 5.17 µM and 41.2 µM
GI50 (HOP-92 NSCLC): 0.71 µM and 1.15 µM
TGI (HOP-92 NSCLC): 4.29 µM and 24.1 µM
GI50 (OVCAR-5 ovarian): 3.7 µM and 1.61 µM
TGI (OVCAR-5 ovarian): 7.55 µM and 6.27 µM
GI50 (A549 NSCLC): 4.76 µM and 6.36 µM
TGI (A549 NSCLC): 9.68 µM and 32.7 µM
GI50 (CAKI-1 renal): 5.18 µM and 16.9 µM
TGI (CAKI-1 renal): 19.5 µM and 44.8 µM
GI50 (TK-10 renal): 5.66 µM and 5.27 µM
TGI (TK-10 renal): 10.1 µM and 10.4 µM
GI50 (DU-145 prostate): 4.11 µM and 9.02 µM
TGI (DU-145 prostate): 7.82 µM and 17.4 µM
GI50 (K-562 leukemia): 4.74 µM and 1.95 µM
TGI (K-562 leukemia): 10.5 µM and 4.2 µM
GI50 (HOP-62 NSCLC): 4.3 µM and 4.48 µM
TGI (HOP-62 NSCLC): 9.23 µM and 13.1 µM
GI50 (SF-268 CNS): 4.38 µM and 7.26 µM
TGI (SF-268 CNS): 9.05 µM and 15.4 µM
GI50 (KM12 colon): 4.39 µM and 2.65 µM
TGI (KM12 colon): 8.07 µM and 6.18 µM
GI50 (UACC-62 melanoma): 0.0177 µM and 0.0275 µM
TGI (UACC-62 melanoma): 2.55 µM and 0.876 µM
GI50 (COLO 205 colon): 0.00987 µM and 0.0293 µM
TGI (COLO 205 colon): 3.1 µM and 5.06 µM
GI50 (SR leukemia): 5.48 µM and 3.64 µM
TGI (SR leukemia): 16.6 µM and 14.5 µM
GI50 (IGROV1 ovarian): 4.38 µM and 18.6 µM
TGI (IGROV1 ovarian): 9.35 µM and 65.6 µM
GI50 (SW-620 colon): 4.07 µM and 2.15 µM
TGI (SW-620 colon): 7.72 µM and 4.78 µM
GI50 (HL-60(TB) leukemia): 2.83 µM and 2.45 µM
TGI (HL-60(TB) leukemia): 7.44 µM and 14.5 µM
GI50 (786-0 renal): 5.02 µM and 2.22 µM
TGI (786-0 renal): 9.83 µM and 4.17 µM
GI50 (BT-549 breast): 4.73 µM and 15 µM
TGI (BT-549 breast): 9.3 µM and 44.1 µM
GI50 (HS 578T breast): 3.96 µM and 25.7 µM
TGI (HS 578T breast): 9.4 µM and 65.5 µM
GI50 (SF-539 CNS): 4.74 µM and 4.07 µM
TGI (SF-539 CNS): 9.3 µM and 7.77 µM
GI50 (SN12C renal): 4.68 µM and 9.41 µM
TGI (SN12C renal): 8.83 µM and 25.9 µM
GI50 (SNB-19 CNS): 5.29 µM and 5.01 µM
TGI (SNB-19 CNS): 10.8 µM and 9.56 µM
GI50 (NCI/ADR-RES ovarian): 14.1 µM and 62.7 µM
TGI (NCI/ADR-RES ovarian): 25 µM and > 100 µM
GI50 (RPMI-8226 leukemia): 5.75 µM and 16.8 µM
TGI (RPMI-8226 leukemia): 13.7 µM and 77 µM
